Read-outs that look alike come from different tables or passages of the source.

Eight molecules from patent US10479780B2, “Aminopyrazole derivatives” (Chugai Seiyaku Kabushiki Kaisha, priority 2015, dated 2019) can be followed below.

Common to all, as to format: biochemical
One assay addresses T1, human Src enzyme (Homo sapiens, UniProt P12931).
T1 construct: purchased Carna Biosciences, Inc. 08-173
Nature of the assay: Src enzyme inhibitory activity (time-resolved fluorometry, biotinylated peptide phosphorylation). To be noted: read-out: SRC_IC50. Put shortly: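 Compounds were tested for blocking tyrosine phosphorylation of a biotinylated peptide substrate by recombinant human Src. Phosphorylated product was quantified by time-resolved fluorometry using europium cryptate and XL665 conjugates, and IC50 was calculated against the compound-free control.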

In the next assay the target is T2, human Lck enzyme (Homo sapiens, UniProt P06239).
T2 construct: purchased Carna Biosciences, Inc. 08-170
Description: Lck enzyme inhibitory activity (time-resolved fluorometry, biotinylated peptide phosphorylation). Particulars: read-out: LCK_IC50. Put shortly:
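Readout pairs a europium cryptate-labelled anti-phosphotyrosine antibody with XL665-streptavidin, measured by time-resolved fluorescence. IC50 derived from percent inhibition against untreated controls.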

The next assay concerns the target T3, human Yes1 enzyme (Homo sapiens, UniProt P07947).
T3 construct: made in house
Nature of the assay: Yes1 enzyme inhibitory activity (time-resolved fluorometry, biotinylated peptide phosphorylation). To be noted: read-out: YES_IC50. In short, it runs like this:
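Inhibition was expressed against a compound-free control to give IC50, using TR-FRET read-out (Eu-cryptate anti-pTyr antibody, streptavidin-XL665).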

[1] abbreviates: biotinylated peptide phosphorylation.

T1 sequence (P12931 whole entry): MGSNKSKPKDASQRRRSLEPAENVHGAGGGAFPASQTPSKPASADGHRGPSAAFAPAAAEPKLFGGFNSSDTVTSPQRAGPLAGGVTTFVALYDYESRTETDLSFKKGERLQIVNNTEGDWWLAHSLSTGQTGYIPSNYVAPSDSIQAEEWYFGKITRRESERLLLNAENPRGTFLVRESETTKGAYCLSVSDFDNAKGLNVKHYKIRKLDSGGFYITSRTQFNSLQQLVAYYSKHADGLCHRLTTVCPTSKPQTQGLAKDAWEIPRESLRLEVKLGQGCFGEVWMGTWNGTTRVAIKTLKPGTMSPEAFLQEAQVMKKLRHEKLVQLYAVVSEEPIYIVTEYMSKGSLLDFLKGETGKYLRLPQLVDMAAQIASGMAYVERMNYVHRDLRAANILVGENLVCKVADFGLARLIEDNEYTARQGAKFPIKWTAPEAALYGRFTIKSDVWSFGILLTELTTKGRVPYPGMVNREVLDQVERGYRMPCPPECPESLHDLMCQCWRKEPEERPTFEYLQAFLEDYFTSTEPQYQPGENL
T3 sequence (P07947 whole entry): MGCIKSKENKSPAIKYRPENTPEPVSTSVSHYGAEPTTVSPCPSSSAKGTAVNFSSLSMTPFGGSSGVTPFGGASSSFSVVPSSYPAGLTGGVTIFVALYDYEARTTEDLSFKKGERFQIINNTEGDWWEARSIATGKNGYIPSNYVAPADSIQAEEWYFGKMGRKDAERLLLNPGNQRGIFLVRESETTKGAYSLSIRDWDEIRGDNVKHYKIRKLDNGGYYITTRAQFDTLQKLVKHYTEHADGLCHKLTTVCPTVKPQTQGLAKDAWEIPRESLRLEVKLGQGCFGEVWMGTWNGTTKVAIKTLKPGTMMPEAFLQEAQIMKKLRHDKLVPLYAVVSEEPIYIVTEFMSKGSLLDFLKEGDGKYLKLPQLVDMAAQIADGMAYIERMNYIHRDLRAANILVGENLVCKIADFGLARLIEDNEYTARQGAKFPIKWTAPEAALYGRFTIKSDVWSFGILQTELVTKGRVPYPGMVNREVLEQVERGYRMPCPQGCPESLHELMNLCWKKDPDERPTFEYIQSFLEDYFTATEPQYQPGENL
T2 sequence (P06239 whole entry): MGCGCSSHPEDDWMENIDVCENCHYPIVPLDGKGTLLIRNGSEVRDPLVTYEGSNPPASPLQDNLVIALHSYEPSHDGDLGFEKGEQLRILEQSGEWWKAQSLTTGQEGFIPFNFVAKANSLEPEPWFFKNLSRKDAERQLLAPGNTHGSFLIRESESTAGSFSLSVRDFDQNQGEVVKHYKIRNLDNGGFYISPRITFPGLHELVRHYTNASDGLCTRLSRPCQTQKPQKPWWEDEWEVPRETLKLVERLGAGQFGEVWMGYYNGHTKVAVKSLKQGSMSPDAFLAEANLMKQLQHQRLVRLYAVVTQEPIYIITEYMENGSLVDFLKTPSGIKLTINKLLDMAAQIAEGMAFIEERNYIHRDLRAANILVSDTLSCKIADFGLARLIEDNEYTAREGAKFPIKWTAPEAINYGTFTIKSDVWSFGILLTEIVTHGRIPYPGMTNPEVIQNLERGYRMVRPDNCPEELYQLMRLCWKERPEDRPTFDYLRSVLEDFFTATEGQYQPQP

Regarding `Cc1cc(Oc2c(F)cccc2F)ncc1-n1ncc(C(=O)c2cc3cc(OCC(F)F)c(-c4cnn(C)c4)cc3[nH]2)c1N` [Example 5-1-264, [5-amino-1-[6-(2,6-difluorophenoxy)-4-methylpyridin-3-yl]pyrazol-4-yl]-[5-(2,2-difluoroethoxy)-6-(1-methylpyrazol-4-yl)-1H-indol-2-yl]methanone], the IC50 stood at 26 nM at human Src enzyme, 21 nM at human Lck enzyme and 5.2 nM at human Yes1 enzyme.

In the case of `Cc1cc2cc(C(=O)c3cnn(-c4ccc(Oc5ccccc5F)cc4C)c3N)[nH]c2cc1N1C(=O)NC2(CCN(Cc3ccccc3)C2)C1=O` (stereo not drawn) [Example 5-1-394, 3-[2-[5-amino-1-[4-(2-fluorophenoxy)-2-methylphenyl]pyrazole-4-carbonyl]-5-methyl-1H-indol-6-yl]-7-benzyl-1,3,7-tnazaspiro[4.4] nonane-2,4-dione], the IC50 on human Src enzyme turned out to be 93 nM; at human Lck enzyme it was 21 nM; on human Yes1 enzyme, 2.9 nM.

For `COc1cc2cc(C(=O)c3cnn(-c4cnc(Oc5ccccc5F)cc4C)c3N)[nH]c2cc1N1CCCS1(=O)=O` [Example 4-14-001, {5-amino-1-[6-(2-fluorophenoxy)-4-methylpyridin-3-yl]pyrazol-4-yl}-[6-(1,1-dioxo-1,2-thiazolidin-2-yl)-5-methoxy-1H-indol-2-yl]methanone], the results for the IC50 at human Src enzyme (setting [1]), on human Lck enzyme (setting [1]) and on human Yes1 enzyme (setting [1]) were 21 nM, 5.8 nM and 1.2 nM, respectively.

Consider `Cc1cc(Oc2ccccc2F)cc(F)c1-n1ncc(C(=O)c2cc3cc(OC(F)F)c(NC4CN(S(C)(=O)=O)C4)cc3[nH]2)c1N` [Example 4-23-024, [5-amino-1-[2-fluoro-4-(2-fluorophenoxy)-6-methylphenyl]pyrazol-4-yl]-[5-(difluoromethoxy)-6-[(1-methylsulfonylazetidin-3-yl)amino]-1H-indol-2-yl]methanone], for which the IC50 at human Src enzyme (setting [1]) is 53 nM; on human Lck enzyme (setting [1]), 13 nM; at human Yes1 enzyme (setting [1]), 7.2 nM.

`Cc1cc2cc(C(=O)c3cnn(-c4cnc(Oc5c(F)cccc5F)cc4C)c3N)[nH]c2cc1NS(=O)(=O)CCCF` [Example 4-2-073, N-[2-[5-amino-1-[6-(2,6-difluorophenoxy)-4-methylpyridin-3-yl]pyrazole-4-carbonyl]-5-methyl-1H-indol-6-yl]-3-fluoropropane-1-sulfonamide]: the IC50 on human Src enzyme (setting [1]) stood at 37 nM; at human Lck enzyme (setting [1]) it was 19 nM; at human Yes1 enzyme (setting [1]) it was 3.1 nM.

For `Cc1cc(Oc2ccccc2F)cc(F)c1-n1ncc(C(=O)c2cc3cc(OC(F)F)c(NS(C)(=O)=O)cc3[nH]2)c1N` [Example 5-1-076, N-[2-[5-amino-1-[2-fluoro-4-(2-fluorophenoxy)-6-methylphenyl]pyrazole-4-carbonyl]-5-(difluoromethoxy)-1H-indol-6-yl] methanesulfonamine], the IC50 worked out at 120 nM on human Src enzyme, 16 nM on human Lck enzyme and 2.8 nM on human Yes1 enzyme.

`Cc1cc(Oc2ccccc2F)ccc1-n1ncc(C(=O)c2cc3cc(OCC(F)F)c(N4C(=O)[C@@H]5C[C@H](NC(=O)OCC(C)C)CN5C4=O)cc3[nH]2)c1N` [Example 5-1-274, 2-methylpropyl N-[(6S,7aS)-2-[2-[5-amino-1-[4-(2-fluorophenoxy)-2-methylphenyl]pyrazole-4-carbonyl]-5-(2,2-difluoroethoxy)-1H-indol-6-yl]-1,3-dioxo-5,6,7,7a-tetrahydropyrrolo[1,2-c]imidazol-6-yl]carbamate]: the IC50 stood at 45 nM on human Src enzyme, 17 nM at human Lck enzyme and 2.1 nM at human Yes1 enzyme.

For `Cc1cc(Oc2ccccc2F)ncc1-n1ncc(C(=O)c2cc3cc(OCC(F)F)c(NS(=O)(=O)CCCF)cc3[nH]2)c1N` [Example 4-24-029, N-[2-[5-amino-1-[6-(2-fluorophenoxy)-4-methylpyridin-3-yl]pyrazole-4-carbonyl]-5-(2,2-difluoroethoxy)-1H-indol-6-yl]-3-fluoropropane-1-sulfonamide], the IC50 stood at 54 nM on human Src enzyme (setting [1]), 29 nM on human Lck enzyme (setting [1]) and 1.6 nM on human Yes1 enzyme (setting [1]).
